Test results taken from BindingDB's records for doi:10.1016/j.bmcl.2007.10.088 (University of Minnesota Minneapolis, 2008).

Target: Bcl-xL (Homo sapiens)
Test: Inhibition of Bak peptide binding to human recombinant Bcl-Xl

| Ki [µM] | SMILES |
| --- | --- |
| 58.4 | CCOC(=O)[C@H](Cc1ccccc1)N1C(=O)/C(=C/c2ccc(OCOc3ccc(/C=C4\SC(=S)N([C@@H](Cc5ccccc5)C(=O)OCC)C4=O)cc3)cc2)SC1=S |
| 134 | O=C(OCCOC(=O)[C@H](Cc1ccccc1)N1C(=O)/C(=C/c2ccc(Br)cc2)SC1=S)[C@H](Cc1ccccc1)N1C(=O)/C(=C/c2ccc(Br)cc2)SC1=S |
| 0.97 | O=C(O)[C@H](Cc1ccccc1)N1C(=O)/C(=C/c2ccc(OCCOc3ccc(/C=C4\SC(=S)N([C@@H](Cc5ccccc5)C(=O)O)C4=O)cc3)cc2)SC1=S |
